Legend:
[1] = target: T1, Alpha-1A adrenergic receptor (Rattus norvegicus, UniProt P43140); test: DRUGMATRIX: Alpha-1A adrenergic receptor radioligand binding (ligand: prazosin); type: cell membranes, Wistar, Submaxillary gland, Membrane; details: Not Active = under 50% inhibition at 10 µM
T1 sequence (P43140 whole entry): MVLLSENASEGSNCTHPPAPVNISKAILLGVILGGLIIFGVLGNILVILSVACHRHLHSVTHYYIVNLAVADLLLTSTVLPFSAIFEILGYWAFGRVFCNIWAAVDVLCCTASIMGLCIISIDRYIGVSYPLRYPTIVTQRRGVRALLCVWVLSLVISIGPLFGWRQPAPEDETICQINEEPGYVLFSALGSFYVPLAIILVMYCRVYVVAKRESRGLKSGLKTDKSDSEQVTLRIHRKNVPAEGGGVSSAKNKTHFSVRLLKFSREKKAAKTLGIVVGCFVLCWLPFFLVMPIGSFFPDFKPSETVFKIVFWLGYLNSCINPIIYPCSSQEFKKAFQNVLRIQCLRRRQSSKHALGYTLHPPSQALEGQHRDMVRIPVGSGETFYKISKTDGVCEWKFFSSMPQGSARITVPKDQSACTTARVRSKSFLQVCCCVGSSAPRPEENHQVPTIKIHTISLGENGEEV

[2] = DRUGMATRIX: Atrial Natriuretic Factor (ANF) radioligand binding (ligand: [125I] ANF (rat)); type: cell membranes, Cavia porcellus, Dunkin-Hartley, Adrenal gland, Membrane; details: Not Active = under 50% inhibition at 10 µM
[3] = target: Sodium-dependent dopamine transporter (Homo sapiens, UniProt Q01959); test: DRUGMATRIX: Dopamine Transporter radioligand binding (ligand: [125I] RTI-55); type: cell membranes, CHO-K1, Membrane; details: Not Active = under 50% inhibition at 10 µM
Endothelin-1 receptor = target: T2, Endothelin-1 receptor (Homo sapiens, UniProt P25101); type: cell membranes, CHO-K1, Membrane; further: in other assays of this panel Not Active means under 50% inhibition at 10 µM
T2 sequence (P25101 whole entry): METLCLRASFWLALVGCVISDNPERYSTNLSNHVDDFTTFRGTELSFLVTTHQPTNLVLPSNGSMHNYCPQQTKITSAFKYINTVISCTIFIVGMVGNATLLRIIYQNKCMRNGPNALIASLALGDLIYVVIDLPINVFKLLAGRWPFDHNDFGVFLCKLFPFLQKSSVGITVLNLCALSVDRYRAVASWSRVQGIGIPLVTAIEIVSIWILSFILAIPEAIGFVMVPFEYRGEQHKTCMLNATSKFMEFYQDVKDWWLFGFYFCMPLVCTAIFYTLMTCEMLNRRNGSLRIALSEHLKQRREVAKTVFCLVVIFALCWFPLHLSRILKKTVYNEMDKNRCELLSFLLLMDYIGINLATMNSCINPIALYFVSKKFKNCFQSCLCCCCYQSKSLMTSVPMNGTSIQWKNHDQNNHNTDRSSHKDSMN

[4] = DRUGMATRIX: Phosphodiesterase PDE4 enzyme inhibition (substrate: [3H]cAMP + cAMP); details: u-937, Not Active = under 50% inhibition at 10 µM
Cytochrome P450 3A4 = Cytochrome P450 3A4 (Homo sapiens, UniProt P08684); details: bti-tn-5b1-4; further: in other assays of this panel Not Active means under 50% inhibition at 10 µM
Sequence of Cytochrome P450 3A4 (P08684 whole entry): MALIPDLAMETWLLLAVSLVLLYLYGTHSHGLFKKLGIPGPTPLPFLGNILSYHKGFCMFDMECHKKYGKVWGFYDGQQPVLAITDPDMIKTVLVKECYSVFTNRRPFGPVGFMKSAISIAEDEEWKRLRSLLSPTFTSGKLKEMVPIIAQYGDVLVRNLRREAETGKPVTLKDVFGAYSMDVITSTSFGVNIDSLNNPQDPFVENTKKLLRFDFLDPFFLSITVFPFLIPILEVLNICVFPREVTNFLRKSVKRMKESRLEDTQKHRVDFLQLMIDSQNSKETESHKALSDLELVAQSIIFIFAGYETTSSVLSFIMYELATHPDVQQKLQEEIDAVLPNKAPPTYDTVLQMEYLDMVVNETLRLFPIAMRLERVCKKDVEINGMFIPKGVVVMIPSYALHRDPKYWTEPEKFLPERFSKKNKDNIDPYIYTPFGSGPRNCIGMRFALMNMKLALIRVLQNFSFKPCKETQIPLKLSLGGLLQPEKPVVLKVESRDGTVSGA

Sequence of Sodium-dependent dopamine transporter (Q01959 whole entry): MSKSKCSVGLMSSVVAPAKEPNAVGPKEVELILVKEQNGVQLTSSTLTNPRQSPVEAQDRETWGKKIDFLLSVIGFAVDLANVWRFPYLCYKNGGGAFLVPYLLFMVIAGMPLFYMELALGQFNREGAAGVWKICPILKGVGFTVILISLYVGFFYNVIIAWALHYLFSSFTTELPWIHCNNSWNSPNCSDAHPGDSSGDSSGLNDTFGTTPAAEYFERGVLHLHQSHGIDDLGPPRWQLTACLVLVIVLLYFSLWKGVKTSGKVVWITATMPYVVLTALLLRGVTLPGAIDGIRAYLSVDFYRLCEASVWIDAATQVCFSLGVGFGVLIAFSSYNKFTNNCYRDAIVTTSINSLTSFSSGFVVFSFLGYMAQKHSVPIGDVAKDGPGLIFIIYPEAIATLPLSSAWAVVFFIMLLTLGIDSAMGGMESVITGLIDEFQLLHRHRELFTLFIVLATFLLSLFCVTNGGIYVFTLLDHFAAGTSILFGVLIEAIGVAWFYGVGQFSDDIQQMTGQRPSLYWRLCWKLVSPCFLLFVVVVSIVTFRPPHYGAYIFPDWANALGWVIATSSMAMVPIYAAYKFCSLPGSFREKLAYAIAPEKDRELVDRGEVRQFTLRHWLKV

Structure (SMILES) | IC50 [1] | IC50 [2] | Ki [2] | IC50 ([3]; cho-k1) | IC50 (Endothelin-1 receptor; cho-k1) | IC50 [4] | Ki [4] | IC50 (Cytochrome P450 3A4) | Ki (Cytochrome P450 3A4) | IC50 ([4]; read-out: IC50) | IC50 ([3]; read-out: IC50) | Ki ([3]; read-out: Ki) | IC50 ([1]; read-out: IC50) | Ki ([1]; read-out: Ki) | IC50 (Endothelin-1 receptor; read-out: IC50) | Ki (Endothelin-1 receptor; read-out: Ki)
COc1nc(C)nc(Cl)c1NC1=NCCN1 [MOXONIDINE] | Not Active | Not Active | Not Active | Not Active | Not Active | Not Active | Not Active | Not Active | Not Active | – | – | – | – | – | – | –
N[C@@H](Cc1ccc(O)c(O)c1)C(=O)O [LEVODOPA] | Not Active | Not Active | Not Active | Not Active | Not Active | Not Active | Not Active | Not Active | Not Active | – | – | – | – | – | – | –
OCCN(CCO)c1nc(N2CCCCC2)c2nc(N(CCO)CCO)nc(N3CCCCC3)c2n1 [DIPYRIDAMOLE] | Not Active | Not Active | Not Active | Not Active | Not Active | – | – | – | – | 1.58 µM | – | – | – | – | – | –
Cn1ccnc1S [METHIMAZOLE] | Not Active | Not Active | Not Active | Not Active | Not Active | Not Active | Not Active | – | – | – | – | – | – | – | – | –
CC(=O)[C@@]1(O)CC[C@H]2[C@@H]3C[C@H](C)C4=CC(=O)CC[C@]4(C)[C@H]3CC[C@@]21C | Not Active | Not Active | Not Active | Not Active | Not Active | Not Active | Not Active | Not Active | Not Active | – | – | – | – | – | – | –
C=CCC1(C(C)CCC)C(=O)NC(=O)NC1=O (configuration not stated) [SECOBARBITAL] | Not Active | Not Active | Not Active | Not Active | Not Active | Not Active | Not Active | Not Active | Not Active | – | – | – | – | – | – | –
C[C@@H]1CN(c2c(F)c(N)c3c(=O)c(C(=O)O)cn(C4CC4)c3c2F)C[C@H](C)N1 [SPARFLOXACIN] | Not Active | Not Active | Not Active | Not Active | Not Active | Not Active | Not Active | Not Active | Not Active | – | – | – | – | – | – | –
O=c1ncn2nc(Sc3ccc(F)cc3F)ccc2c1-c1c(Cl)cccc1Cl [NEFLAMAPIMOD] | Not Active | Not Active | Not Active | – | Not Active | Not Active | Not Active | Not Active | Not Active | – | 8.1 µM | 6.43 µM | – | – | – | –
Nc1c2c(nc3ccccc13)CCCC2 [TACRINE] | – | Not Active | Not Active | Not Active | Not Active | Not Active | Not Active | Not Active | Not Active | – | – | – | 2.75 µM | 1.11 µM | – | –
CO[C@H]1/C=C/O[C@@]2(C)Oc3c(C)c(O)c4c(O)c(c(/C=N/N5CCN(C)CC5)c(O)c4c3C2=O)NC(=O)/C(C)=C\C=C\[C@H](C)[C@H](O)[C@@H](C)[C@@H](O)[C@@H](C)[C@H](OC(C)=O)[C@@H]1C [RIFAMPIN] | Not Active | Not Active | Not Active | Not Active | Not Active | Not Active | Not Active | – | – | – | – | – | – | – | – | –
CCCCc1oc2ccccc2c1C(=O)c1cc(I)c(OCCN(CC)CC)c(I)c1 [AMIODARONE] | Not Active | – | – | – | – | – | – | – | – | – | – | – | – | – | 26.3 µM | 16.2 µM
CCOC(=O)N1CCC(=C2c3ccc(Cl)cc3CCc3cccnc32)CC1 [LORATADINE] | Not Active | Not Active | Not Active | Not Active | Not Active | Not Active | Not Active | – | – | – | – | – | – | – | – | –
N[C@@H](Cc1ccc(N(CCCl)CCCl)cc1)C(=O)O | Not Active | Not Active | Not Active | Not Active | Not Active | Not Active | Not Active | Not Active | Not Active | – | – | – | – | – | – | –
Cc1noc(NS(=O)(=O)c2ccc(N)cc2)c1C [SULFISOXAZOLE] | Not Active | Not Active | Not Active | Not Active | – | Not Active | Not Active | Not Active | Not Active | – | – | – | – | – | – | –
